Experimental data as given in ChEMBL document CHEMBL1201862, “PubChem BioAssay data set” (2004).
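A five-concentration, 48-hour dose response in 96-well plates underlies each endpoint, interpolated linearly between surrounding concentrations. GI50: concentration for 50% inhibition of growth.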 Activity calls are given as the source filed them. Cut-off read from the data, not from the text of the source: active = GI50 up to about 1.1 µM and inactive = higher.

How the values were obtained:
Assay in all cases: DTP human tumour cell line panel, 48 h
BT-549 = system: BT-549
MOLT-4 = system: MOLT-4
SK-MEL-5 = system: SK-MEL-5
T47D = system: T47D
SK-OV-3 = system: SK-OV-3
SW-620 = system: SW-620
PC-3 = system: PC-3
OVCAR-8 = system: OVCAR-8
SK-MEL-2 = system: SK-MEL-2
A549 = system: A549
ACHN = system: ACHN
OVCAR-4 = system: OVCAR-4
OVCAR-3 = system: OVCAR-3
Malme-3M = system: Malme-3M
RXF 393 = system: RXF 393
OVCAR-5 = system: OVCAR-5
M14 = system: M14
MDA-MB-435 = system: MDA-MB-435
UACC-62 = system: UACC-62
SR = system: SR

Measured: GI50

CN(C)CCCn1c(Cn2nc3ccccc3n2)nc2cc(C(F)(F)F)ccc21
inactive: BT-549 16.8 µM | MOLT-4 19.1 µM | SK-MEL-5 16.6 µM | T47D 15.2 µM | SK-OV-3 16.9 µM | SW-620 34.2 µM | PC-3 31.6 µM | OVCAR-8 30.4 µM | SK-MEL-2 19.4 µM | A549 41 µM | ACHN 41.5 µM | OVCAR-4 33.4 µM | OVCAR-3 36.7 µM | Malme-3M 11.6 µM | RXF 393 22.1 µM | OVCAR-5 > 100 µM | M14 15.3 µM | MDA-MB-435 16.5 µM | UACC-62 19.2 µM

COc1ccc2c(C=O)c3n(c(=O)c2c1OC)CCc1cc2c(cc1-3)OCO2
inactive: BT-549 18.9 µM | MOLT-4 4.59 µM | SK-MEL-5 24 µM | T47D 10.8 µM | SK-OV-3 > 100 µM | SW-620 38.6 µM | PC-3 15.1 µM | OVCAR-8 23.4 µM | SK-MEL-2 25.9 µM | A549 22.3 µM | ACHN 69.2 µM | OVCAR-4 > 100 µM | OVCAR-3 80.5 µM | Malme-3M 80 µM | RXF 393 2.91 µM | OVCAR-5 > 100 µM | M14 18.6 µM | MDA-MB-435 22.5 µM | UACC-62 21 µM

COP(C)(=O)C(Cc1c[nH]c2ccccc12)NC(=O)OCc1ccccc1 (configuration not stated)
inactive: BT-549 > 100 µM | MOLT-4 > 100 µM | SK-MEL-5 > 100 µM | T47D > 100 µM | SK-OV-3 > 100 µM | SW-620 > 100 µM | PC-3 > 100 µM | OVCAR-8 > 100 µM | SK-MEL-2 > 100 µM | A549 > 100 µM | ACHN > 100 µM | OVCAR-4 > 100 µM | OVCAR-3 > 100 µM | Malme-3M > 100 µM | RXF 393 > 100 µM | OVCAR-5 > 100 µM | M14 > 100 µM | MDA-MB-435 > 100 µM | UACC-62 > 100 µM

COC(=O)c1cc(/C=C2\Cc3cc4c(cc3C2=O)CCC4)cc2c1CCC2
inactive: SR > 100 µM | BT-549 > 100 µM | MOLT-4 > 100 µM | T47D > 100 µM | SK-OV-3 > 100 µM | SW-620 > 100 µM | PC-3 > 100 µM | OVCAR-8 > 100 µM | SK-MEL-2 > 100 µM | A549 > 100 µM | ACHN > 100 µM | OVCAR-4 41.3 µM | OVCAR-3 > 100 µM | Malme-3M > 100 µM | OVCAR-5 > 100 µM | M14 > 100 µM | MDA-MB-435 > 100 µM | UACC-62 > 100 µM

Cn1ccc(C(=O)N2CCSC2=S)c(OCc2ccccc2)c1=O
inactive: SR 26.7 µM | BT-549 > 100 µM | SK-MEL-5 > 100 µM | T47D 66.7 µM | SW-620 > 100 µM | PC-3 > 100 µM | OVCAR-8 > 100 µM | SK-MEL-2 > 100 µM | A549 > 100 µM | ACHN > 100 µM | OVCAR-4 > 100 µM | Malme-3M 87.7 µM | MDA-MB-435 > 100 µM | UACC-62 > 100 µM

COc1ccc2c(c1OC)C(=O)O[C@@H]2[C@H]1c2cc3c(cc2CCN1C)OCO3
inactive: SR > 100 µM | BT-549 > 100 µM | MOLT-4 > 100 µM | SK-MEL-5 > 100 µM | T47D > 100 µM | SK-OV-3 > 100 µM | SW-620 > 100 µM | PC-3 > 100 µM | OVCAR-8 > 100 µM | SK-MEL-2 > 100 µM | A549 > 100 µM | ACHN > 100 µM | OVCAR-4 > 100 µM | OVCAR-3 > 100 µM | OVCAR-5 > 100 µM | M14 > 100 µM | MDA-MB-435 > 100 µM | UACC-62 > 100 µM
